Measured values reported in PMC6023986, “Interactions Between Emodin and Efflux Transporters on Rat Enterocyte by a Validated Ussing Chamber Technique” (Frontiers in Pharmacology, 2018).
Read-outs that look alike come from different tables or passages of the source. Blank lines part the entries; values can stand above or below the compound they belong to.

How the values were obtained:
MRP3 [1] = molecular target: T1, MRP3 (Rattus norvegicus, UniProt O88563); test: Ussing chamber bidirectional transport, model validation for MRP3 (teniposide substrate, benzbromarone inhibitor); format: in vitro ADME; settings: rat
T1 construct: intestinal segments including duodenum, jejunum, ileum, and colon from anesthetized rats were immediately removed by surgery; from tissue; host or cells: stripped rat intestine (jejunum and ileum in validation; jejunum for the emodin studies)
T1 sequence (O88563 whole entry): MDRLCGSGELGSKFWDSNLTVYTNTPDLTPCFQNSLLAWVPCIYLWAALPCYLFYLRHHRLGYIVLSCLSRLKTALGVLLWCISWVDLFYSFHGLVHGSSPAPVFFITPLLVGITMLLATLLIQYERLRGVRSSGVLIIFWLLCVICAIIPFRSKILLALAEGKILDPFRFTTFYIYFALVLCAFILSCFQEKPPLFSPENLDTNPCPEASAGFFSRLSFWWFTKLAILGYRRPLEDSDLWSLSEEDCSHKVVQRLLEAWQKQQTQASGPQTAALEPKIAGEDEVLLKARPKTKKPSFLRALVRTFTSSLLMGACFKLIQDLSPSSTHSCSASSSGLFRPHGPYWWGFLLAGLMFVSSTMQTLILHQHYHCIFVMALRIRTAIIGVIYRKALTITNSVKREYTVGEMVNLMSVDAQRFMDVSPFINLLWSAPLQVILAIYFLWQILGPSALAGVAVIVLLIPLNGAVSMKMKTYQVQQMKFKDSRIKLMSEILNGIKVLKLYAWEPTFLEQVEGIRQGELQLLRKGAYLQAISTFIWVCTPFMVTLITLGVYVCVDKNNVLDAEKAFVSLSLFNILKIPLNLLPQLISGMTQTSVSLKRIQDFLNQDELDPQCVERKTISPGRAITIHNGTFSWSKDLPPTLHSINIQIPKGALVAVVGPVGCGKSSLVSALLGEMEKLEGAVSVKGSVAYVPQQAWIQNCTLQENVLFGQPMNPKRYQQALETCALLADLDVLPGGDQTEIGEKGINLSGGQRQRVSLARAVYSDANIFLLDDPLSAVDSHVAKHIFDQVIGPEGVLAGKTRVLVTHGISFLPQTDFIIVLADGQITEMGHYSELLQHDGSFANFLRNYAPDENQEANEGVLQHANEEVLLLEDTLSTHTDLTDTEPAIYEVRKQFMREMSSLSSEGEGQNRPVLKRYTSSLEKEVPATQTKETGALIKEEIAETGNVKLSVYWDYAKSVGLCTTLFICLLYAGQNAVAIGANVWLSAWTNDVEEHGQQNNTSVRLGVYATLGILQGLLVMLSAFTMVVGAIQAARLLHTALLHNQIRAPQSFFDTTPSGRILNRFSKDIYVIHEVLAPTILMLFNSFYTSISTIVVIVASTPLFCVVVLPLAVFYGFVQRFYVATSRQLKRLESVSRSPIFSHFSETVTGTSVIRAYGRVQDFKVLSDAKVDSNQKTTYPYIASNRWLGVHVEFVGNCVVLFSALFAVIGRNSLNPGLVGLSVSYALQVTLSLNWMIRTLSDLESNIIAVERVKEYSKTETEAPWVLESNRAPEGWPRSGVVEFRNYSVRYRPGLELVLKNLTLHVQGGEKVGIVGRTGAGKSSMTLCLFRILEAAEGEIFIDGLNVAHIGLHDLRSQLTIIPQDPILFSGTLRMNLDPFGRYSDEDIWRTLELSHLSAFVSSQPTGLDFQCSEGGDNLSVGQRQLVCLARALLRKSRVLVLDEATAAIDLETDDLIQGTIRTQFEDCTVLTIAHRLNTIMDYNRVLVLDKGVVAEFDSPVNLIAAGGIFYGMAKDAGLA
From the text: (§1) The four intestinal segments including duodenum, jejunum, ileum, and colon from anesthetized rats were immediately removed by surgery and washed with KRB solution. Each section of the intestinal segments was then placed in cold (on ice), bubbled (O2:CO2 95:5) KRB buffer. The four intestinal segments were then cut into 2 cm pieces, respectively, and serosas were removed by blunt dissection. Peyer’s patches were excluded from the experiment by visually identified. The stripped tissues were mounted in chambers with exposed surface area of 0.49 cm^2. Temperature of the chambers was maintained at 37 ± 0.5°C. Each of the half-cells in the chambers was filled with 5 mL fresh KRB buffer (pH 6.5). Tissue viability was continuously controlled by potential difference (PD). Tissue with electrical values less than 2 mV was refused ([Moazed and Hiebert, 2007]; [Heinen et al., 2013]).
Digoxin, pravastatin, and teniposide were employed as the test substrates of P-gp, MRP2, and MRP3. […] The experiments were started after 30 min equilibration time, by changing the KRB buffer on both sides; 5 mL KRB solution with different test compounds was filled in the mucosal or serosal compartment; meanwhile, equal volume fresh buffer was added to the other compartment. […] The bidirectional transport studies with specific inhibitors were assessed to validate this model whether or not suitable for P-gp, MRP2, and MRP3 studies. Samples were stored at –80°C until analysis ([Deusser et al., 2013]).
(§2) Frozen samples were adequately vortexed after thawing at the room temperature; 10 μL suitable IS solution was added to 200 μL samples; 200 μL methanol was added after a thorough vortex mixing for 30 s. The mixtures were then vortexed for 30 s and centrifuged at 15,000 rpm for 30 min. Finally, 5 μL of supernatant was injected into the LC-MS/MS system.
(§3) The quantifications of the compounds were performed by the TSQ Quantum Ultra Triple Quadrupole LC-MS/MS system from Thermo Fisher Scientific. Chromatography was carried out using an Agilent Poroshell 120 SB-C18 (2.7 μm, 2.1 mm × 100 mm) column with a Phenomenex AFO-8497 C18 pre-column, operating at 30°C. Adaptive gradient elution methods were applied for the analytes. The flow rate of the mobile phase was kept at 0.2 mL min^-1. Flow was directed to the ion spray interface. All measurements were carried out in negative ESI mode. Ion spray voltage was -2500 V. Vaporizer and capillary temperatures were set at 250 and 350°C, respectively. Auto sampler temperature was set at 10°C. Sheath gas and aux gas were set at 30 and 15 Arb, respectively. […] Peak integrations and calibrations were carried out using LC Quan 2.5.2 software from Thermo Fisher Scientific.
(§4) The Q (accumulative quantity), Papp (apparent permeability), Er (efflux ratio), Pr (Papp ratio), and Err (Er ratio) across the excited rat intestinal segments in the Ussing chamber were calculated using the following equations ([Li et al., 2012]; [Huang et al., 2016]): […]
(§5) where Cn (nM) is the concentration of the drug at the time point (n), Q (nM) is the accumulated absorption amount, A is the exposed surface area of the intestine (0.49 cm^2), dQ/dt (nM⋅s^-1) is the amount of the drug transported, and C0 (nM) is the initial concentration of the test drug. Experiments were performed in batches, so control groups were set as one for each batch.

MRP3 [2] = molecular target: T1, MRP3; test: Influence of emodin on MRP3 function: teniposide bidirectional transport in the presence of emodin (Ussing chamber); format: in vitro ADME; settings: rat jejunum; for Papp at 60 μM: rat
From the text: as §1
(§6) In this study, the effects of the three efflux transporters on emodin intestinal absorption were investigated. Meanwhile, the influence of emodin on intestinal P-gp, MRP2, and MRP3 functions were also discussed. Solutions with three concentrations (low, middle, and high) of emodin were filled in the mucosal or serosal compartment to measure the bidirectional transport characteristic. […] In the emodin impact experiments, digoxin, pravastatin, and teniposide were employed as P-gp, MRP2, and MRP3 substrates. Changes of the bidirectional transport characteristic were measured before and after adding emodin to the mucosal side.
as §2, §3, §4, §5

[3] = design: method as in Di et al. (2015); settings: ref Di et al. (2015); cited from earlier work
Caco-2 cell = test system: Caco-2 cell; design: method as in Yu et al. (2017); settings: Caco-2 cell culture model; ref Yu et al. (2017); cited from earlier work
[4] = Absorption characteristics of emodin in rat intestinal segments (Ussing chamber)
From the text: as §1
as §6, with “side. […]” for “side.”
(§7) The quantifications of the compounds were performed by the TSQ Quantum Ultra Triple Quadrupole LC-MS/MS system from Thermo Fisher Scientific. […]
as §4

P-gp [5] = test: Emodin transport in jejunum in the presence of P-gp inhibitor verapamil (Ussing chamber); settings: rat jejunum, emodin 9.25 μM, verapamil 220 μM on mucosal side
From the text: as §1, with “Tissue viability was continuously controlled by potential difference (PD). Tissue with electrical values less than 2 mV was refused ([Moazed and Hiebert, 2007]; [Heinen et al., 2013]).” left out
(§8) In this study, the effects of the three efflux transporters on emodin intestinal absorption were investigated. […] Changes of the bidirectional transport characteristic were measured before and after adding emodin to the mucosal side. […]
as §7, §4

MRP2 = MRP2 (Rattus norvegicus, UniProt Q63120); test: Emodin transport in jejunum in the presence of MRP2 inhibitor MK571 (Ussing chamber); settings: MK571 186 μM on mucosal side
Chain of MRP2 (Q63120 whole entry, the tested form may be a part): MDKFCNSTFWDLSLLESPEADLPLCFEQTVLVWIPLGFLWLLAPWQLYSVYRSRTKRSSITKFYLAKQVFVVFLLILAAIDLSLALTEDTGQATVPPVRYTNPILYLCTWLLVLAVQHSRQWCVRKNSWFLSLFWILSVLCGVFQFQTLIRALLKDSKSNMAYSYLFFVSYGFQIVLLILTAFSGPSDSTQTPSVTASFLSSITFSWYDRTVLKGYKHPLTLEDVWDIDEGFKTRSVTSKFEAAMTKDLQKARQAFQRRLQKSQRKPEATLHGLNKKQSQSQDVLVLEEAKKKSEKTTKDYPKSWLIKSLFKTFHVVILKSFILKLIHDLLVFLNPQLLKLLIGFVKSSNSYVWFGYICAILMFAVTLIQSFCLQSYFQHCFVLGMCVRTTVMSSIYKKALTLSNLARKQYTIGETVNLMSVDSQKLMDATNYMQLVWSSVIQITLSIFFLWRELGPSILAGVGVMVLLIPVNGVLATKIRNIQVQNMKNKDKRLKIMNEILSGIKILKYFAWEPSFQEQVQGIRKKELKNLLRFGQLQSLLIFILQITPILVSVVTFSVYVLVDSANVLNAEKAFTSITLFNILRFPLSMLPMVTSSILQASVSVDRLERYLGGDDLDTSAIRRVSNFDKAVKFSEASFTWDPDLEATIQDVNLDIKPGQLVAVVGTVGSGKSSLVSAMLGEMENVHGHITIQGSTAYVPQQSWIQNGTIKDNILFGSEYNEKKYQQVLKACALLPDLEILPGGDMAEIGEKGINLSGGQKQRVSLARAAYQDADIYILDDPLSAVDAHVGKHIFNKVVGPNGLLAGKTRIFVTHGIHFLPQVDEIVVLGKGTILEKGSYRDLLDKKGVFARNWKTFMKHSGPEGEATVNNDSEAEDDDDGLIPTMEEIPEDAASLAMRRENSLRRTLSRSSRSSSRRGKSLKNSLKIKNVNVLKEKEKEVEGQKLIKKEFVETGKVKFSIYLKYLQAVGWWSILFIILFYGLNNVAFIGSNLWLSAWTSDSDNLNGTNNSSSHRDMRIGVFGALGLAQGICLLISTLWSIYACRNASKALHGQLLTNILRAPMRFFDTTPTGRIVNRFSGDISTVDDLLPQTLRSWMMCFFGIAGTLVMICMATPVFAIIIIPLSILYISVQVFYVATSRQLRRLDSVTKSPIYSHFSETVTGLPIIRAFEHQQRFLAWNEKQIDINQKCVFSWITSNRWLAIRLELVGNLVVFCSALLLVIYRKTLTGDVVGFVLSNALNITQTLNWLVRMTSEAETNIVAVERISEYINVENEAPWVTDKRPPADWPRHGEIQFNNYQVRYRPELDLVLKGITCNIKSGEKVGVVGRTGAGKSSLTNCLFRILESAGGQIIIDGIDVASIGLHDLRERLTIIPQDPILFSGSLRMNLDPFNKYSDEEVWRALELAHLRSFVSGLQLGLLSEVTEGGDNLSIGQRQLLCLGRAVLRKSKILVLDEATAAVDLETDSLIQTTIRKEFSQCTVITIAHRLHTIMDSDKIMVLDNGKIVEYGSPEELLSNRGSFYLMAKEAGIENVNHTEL
From the text: as §1, with “Tissue viability was continuously controlled by potential difference (PD). Tissue with electrical values less than 2 mV was refused ([Moazed and Hiebert, 2007]; [Heinen et al., 2013]).” left out
as §8, §7, §4

MRP3 [6] = molecular target: T1, MRP3; test: Emodin transport in jejunum in the presence of MRP3 inhibitor benzbromarone (Ussing chamber); format: in vitro ADME
From the text: as §1, with “Tissue viability was continuously controlled by potential difference (PD). Tissue with electrical values less than 2 mV was refused ([Moazed and Hiebert, 2007]; [Heinen et al., 2013]).” left out
as §8, §7, §4

P-gp [7] = test: Influence of emodin on P-gp function: digoxin bidirectional transport in the presence of emodin (Ussing chamber); format: in vitro ADME; settings: rat jejunum, emodin 185, 370, 740 μM, digoxin as substrate
From the text: as §1, §6, §2, §3, §4, §5

P-glycoprotein (P-gp) = test system: P-glycoprotein (P-gp); design: method as in Teng et al., 2007, 2012; Liu et al., 2012; settings: ref Teng et al., 2007, 2012, Liu et al.; cited from earlier work
[8] = test system: multidrug-resistant associated protein 2 (MRP2); design: method as in Teng et al., 2007, 2012; Liu et al., 2012; settings: ref Teng et al., 2007, 2012, Liu et al.; cited from earlier work

- Papp (MRP3 [1]; pH 6.5, rat colon, without inhibitor, read-out: Papp M-S, control): 16 ± 11.1 ×10⁻⁶ cm/s
- Papp (MRP3 [1]; pH 6.5, rat colon, without inhibitor, read-out: Papp S-M, control): 21.3 ± 11.9 ×10⁻⁶ cm/s
- Papp (MRP3 [1]; pH 6.5, rat ileum, without inhibitor, read-out: Papp M-S, control): 12.6 ± 7.7 ×10⁻⁶ cm/s
- Papp (MRP3 [1]; pH 6.5, rat ileum, without inhibitor, read-out: Papp S-M, control): 24.5 ± 10 ×10⁻⁶ cm/s
- Papp (MRP3 [1]; pH 6.5, rat jejunum, without inhibitor, read-out: Papp M-S, control): 14 ± 4.4 ×10⁻⁶ cm/s
- Papp (MRP3 [1]; pH 6.5, rat jejunum, without inhibitor, read-out: Papp S-M, control): 33.5 ± 14 ×10⁻⁶ cm/s
- Papp (MRP3 [1]; pH 6.5, with benzbromarone 470 μM, mucosal side, rat colon, with benzbromarone 470 μM on mucosal side, read-out: Papp M-S, with inhibitor): 28.3 ± 8.4 ×10⁻⁶ cm/s
- Papp (MRP3 [1]; pH 6.5, with benzbromarone 470 μM, mucosal side, rat colon, with benzbromarone 470 μM on mucosal side, read-out: Papp S-M, with inhibitor): 8.3 ± 1.9 ×10⁻⁶ cm/s
- Papp (MRP3 [1]; pH 6.5, with benzbromarone 470 μM, mucosal side, rat ileum, with benzbromarone 470 μM on mucosal side, read-out: Papp M-S, with inhibitor): 28 ± 19.5 ×10⁻⁶ cm/s
- Papp (MRP3 [1]; pH 6.5, with benzbromarone 470 μM, mucosal side, rat ileum, with benzbromarone 470 μM on mucosal side, read-out: Papp S-M, with inhibitor): 10.3 ± 2.9 ×10⁻⁶ cm/s
- Papp (MRP3 [1]; pH 6.5, with benzbromarone 470 μM, mucosal side, rat jejunum, with benzbromarone 470 μM on mucosal side, read-out: Papp M-S, with inhibitor): 37.2 ± 9.7 ×10⁻⁶ cm/s
- Papp (MRP3 [1]; pH 6.5, with benzbromarone 470 μM, mucosal side, rat jejunum, with benzbromarone 470 μM on mucosal side, read-out: Papp S-M, with inhibitor): 13.1 ± 6.4 ×10⁻⁶ cm/s
- Change of Papp from S-M and Er of teniposide in the presence of emodin (MRP3 [2]; teniposide 60 μM, emodin 185, 370, 740 μM): remarkably decreased
- Papp at 60 μM (MRP3 [2]; pH 6.5, teniposide 60 μM, without emodin, read-out: Papp M-S, control): 69.4 ± 17.5 ×10⁻⁶ cm/s
- Papp at 60 μM (MRP3 [2]; pH 6.5, teniposide 60 μM, without emodin, read-out: Papp S-M, control): 81.8 ± 15.9 ×10⁻⁶ cm/s
- Papp at 60 μM (MRP3 [2]; pH 6.5, with emodin 185 μM on mucosal side, teniposide 60 μM, emodin 185 μM on mucosal side, read-out: Papp M-S in the presence of emodin): 63.2 ± 5.9 ×10⁻⁶ cm/s
- Papp at 60 μM (MRP3 [2]; pH 6.5, with emodin 185 μM on mucosal side, teniposide 60 μM, emodin 185 μM on mucosal side, read-out: Papp S-M in the presence of emodin): 56.1 ± 5.7 ×10⁻⁶ cm/s
- Papp at 60 μM (MRP3 [2]; pH 6.5, with emodin 370 μM on mucosal side, teniposide 60 μM, emodin 370 μM on mucosal side, read-out: Papp M-S in the presence of emodin): 52.5 ± 7.3 ×10⁻⁶ cm/s
- Papp at 60 μM (MRP3 [2]; pH 6.5, with emodin 370 μM on mucosal side, teniposide 60 μM, emodin 370 μM on mucosal side, read-out: Papp S-M in the presence of emodin): 31.2 ± 13.2 ×10⁻⁶ cm/s
- Papp at 60 μM (MRP3 [2]; pH 6.5, with emodin 740 μM on mucosal side, teniposide 60 μM, emodin 740 μM on mucosal side, read-out: Papp M-S in the presence of emodin): 91.1 ± 27.3 ×10⁻⁶ cm/s
- Papp at 60 μM (MRP3 [2]; pH 6.5, with emodin 740 μM on mucosal side, teniposide 60 μM, emodin 740 μM on mucosal side, read-out: Papp S-M in the presence of emodin): 41.1 ± 6.2 ×10⁻⁶ cm/s
Compound: COc1cc([C@@H]2c3cc4c(cc3[C@@H](O[C@@H]3O[C@@H]5CO[C@@H](c6cccs6)O[C@H]5[C@H](O)[C@H]3O)[C@H]3COC(=O)[C@H]23)OCO4)cc(OC)c1O [Teniposide]

Compound: O=C(/C=C/C=C/c1ccc2c(c1)OCO2)N1CCCCC1 [piperine]
- Effect on glucuronidation metabolism of emodin [3]: inhibited
- Effect on in vivo bioavailability of emodin [3]: significantly improved

Compound: OC[C@H]1O[C@@H](Oc2c(O)cc(O)cc2C=Cc2ccc(O)cc2)[C@H](O)[C@@H](O)[C@@H]1O [2,3,5,4’-tetrahydroxystilbene-2-β-D-glucoside]
- Effect on emodin absorption (Caco-2 cell): could enhance

Compound: Cc1cc(O)c2c(c1)C(=O)c1cc(O)cc(O)c1C2=O [Emodin, 1,3,8trihydroxy-6-methylanthraquinone]
- Regioselectivity of intestinal absorption rates ([4]; duodenum, jejunum, ileum, colon, 9.25, 18.5 and 37 μM): no regioselectivity
- Papp values from M-S ([4]; rat intestinal segments, lowest concentration (9.25 μM)): very low
- Er (efflux ratio) of emodin ([4]; rat jejunum, at all three concentrations 9.25, 18.5 and 37 μM): more than five
- Change of emodin absorption (M-S) with verapamil (P-gp [5]): markedly increase
- Change of emodin efflux ratio with verapamil (P-gp [5]): decrease
- Change of emodin Papp from mucosal to serosal side with MK571 (MRP2): significantly increased
- Change of emodin efflux ratio with MK571 (MRP2): decreased
- Substrate of MRP3 (MRP3 [6]; Ussing chamber): might not be a substrate
- Change of emodin transport with benzbromarone (MRP3 [6]; benzbromarone 470 μM on mucosal side): no significant differences
- Effect of emodin on P-gp function (P-gp [7]): could enhance P-gp function
- Effect of emodin on MRP3 function (MRP3 [2]; emodin 185, 370, 740 μM, teniposide as substrate): might be an MRP3 inhibitor
- Substrate of P-gp (P-glycoprotein (P-gp)): substrate
- Substrate of MRP2 [8]: substrate
